Consider one compound from patent US4520200A, “Isoxazole derivatives” (Zambon S.p.A., priority 1978, dated 1985).

Values joined by “and” are separate entries in the source; they are usually repeats but may differ in a detail not shown here. Identical values can stand only once.

Data set [1] can be described thus: acute toxicity, LD50, mouse. The conditions noted are these: in vivo.
The nature of data set [2]: acute toxicity, LD50, rat. The conditions noted are these: in vivo.
Data set [3] can be described thus: tolerance in different animal species and administration ways. Format: in vivo.

Usually LD50 stands for the dose expected to kill half of the subjects tested. Read a low LD50 as a more toxic substance. Take `CC(C)(C)NCC(O)c1cc(Br)no1` (stereo not drawn) [Z 1170, 1-(3-bromo-isoxazol-5-yl)-2-ter.butylaminoethanol]: the median lethal dose (LD50) in data set [1] (ip) is 230 mg/kg; in data set [1] (iv, i.v. (1 ml/100 g/60")), 126 mg/kg and 420 µmol/kg; in data set [1] (po, os) it was 770 mg/kg; in data set [2] (iv, i.v. (1 ml/100 g/60")) it was 196 mg/kg and 650 µmol/kg; in data set [2] (po, os) it was over 2000 mg/kg. The tolerance result in data set [3] is given as “particularly favorable tolerance”.
